Measurements: patent US20150133401A1, “COMBINATION THERAPY INVOLVING A VASCULAR DISRUPTING AGENT AND AN AGENT WHICH TARGETS HYPOXIA” (BIONOMICS LIMITED, priority 2012, published 2015)

Tests used:
[1] = tested on: RENCA (VHL wildtype) orthotopic tumour; experiment: Tumour growth inhibition by weight of RENCA orthotopic tumour bearing kidneys; format: in vivo, Balb/c mice; settings: kidneys weighed on Day 10 of treatment; Pazopanib 30 mg/kg p.o. daily, BNC105 16 mg/kg i.v. Days 2 and 9; FIG. 3
Protocol: FIG. 3 Right kidney weight (mg)±SEM of mice bearing RENCA kidney tumours treated with BNC105P, Pazopanib or BNC105P+Pazopanib.
RENCA (VHL wildtype) orthotopic tumour bearing kidneys from Balb/c mice were weighed on Day 10 day of treatment (Pazopanib 30 mg/kg, p.o. Daily, BNC105 16 mg/kg i.v. Days 2 and 9).

[2] = tested on: tumour endothelial cells (activated) and normal endothelial cells (quiescent); experiment: Selectivity between activated (tumour) and quiescent (normal) endothelial cells; format: cell-based
Source text: An important aspect of the compounds of formulae I, Ia, Ib, II and III is the combination of the specific C-6 and C-7 substituents together with the C-2 Q-group (especially C-2 methyl) which appears to confer greater potency and selectivity when compared to other structurally related TPI compounds. In these compounds selectivity is not simply reliant on the predisposition of tumour vasculature towards collapse when challenged with the VDA but on a capacity of the VDA to distinguish between tumour endothelial cells and normal endothelial cells. Normal endothelial cells, found in healthy tissues, are in a “quiescent” state and tumour endothelial cells are in an “activated” state.

RENCA orthotopic tumour = experiment: TUNEL assay of necrosis in RENCA orthotopic tumour sections; format: in vivo, Balb/c mice; settings: 4 hours after dosing BNC105 on Day 9; Bortezomib 0.5 mg/kg iv Days 1, 5, 8; BNC105 32 mg/kg iv Days 2 and 9
Protocol: RENCA orthotopic tumour bearing kidneys from Balb/c mice were photographed 4 hours after dosing BNC105 on Day 9 of treatment (Bortezomib 0.5 mg/kg iv Days 1, 5, 8, BNC105 32 mg/kg iv Days 2 and 9). Formalin fixed and paraffin embedded sections were stained using a TUNEL assay (Roche) to visualize cell necrosis.

tumor mass = experiment: Histological changes caused by BNC105 anti-tumor action (tumor necrosis); format: in vivo; settings: histology; peripheral regions remain viable
Source text: Based on investigations on the histological changes caused by BNC105 anti-tumor action, it was established that >95% of the tumor mass becomes necrotic, while peripheral regions remain viable. […] Among these is the angiogenesis growth factor VEGF. The present inventors sought to investigate the potential therapeutic benefit of combining BNC105 with an inhibitor of the VEGF/VEGFR2 signalling pathway.

RENCA renal tumours = experiment: Vascular shutdown and hypoxia response markers in RENCA renal tumours; format: in vivo
Calu-6 lung carcinoma = experiment: Tumour hypoxia / disruption of tumour vasculature in Calu-6 tumours; format: in vivo
Colo205 colon carcinoma = experiment: Tumour hypoxia / disruption of tumour vasculature in Colo205 tumours; format: in vivo
[3] = tested on: RENCA (VHL wildtype) orthotopic tumour; experiment: Immunohistochemistry of unfolded protein response markers in RENCA orthotopic tumour sections; format: in vivo, Balb/c mice; settings: 24 hours after a single dose i.v. 32 mg/kg
Source text: (Fast Red detection on hematoxylin)

[4] = tested on: DU-145 prostate carcinoma; experiment: Tumour hypoxia / disruption of tumour vasculature in DU-145 tumours; format: in vivo
[5] = tested on: MDA-MB-231 breast carcinoma; experiment: Tumour hypoxia / disruption of tumour vasculature in MDA-MB-231 tumours; format: in vivo

Cc1ccc(Nc2nccc(N(C)c3ccc4c(C)n(C)nc4c3)n2)cc1S(N)(=O)=O [Pazopanib, reference compound]
tumour growth inhibition [1]: 19%

COc1ccc(/C=C\c2cc(OC)c(OC)c(OC)c2)cc1O [Combretastatin A4 (CA4), Combretastatin A4, reference compound]
potency against quiescent versus activated endothelial cells (selectivity) [2]: equally potent against quiescent and activated endothelial cells

CC(C)C[C@H](NC(=O)[C@H](Cc1ccccc1)NC(=O)c1cnccn1)B(O)O [Bortezomib, reference compound]
tumor necrosis (TUNEL staining) (RENCA orthotopic tumour): Very little tumor necrosis

COc1cc(C(=O)c2c(C)oc3c(O)c(OC)ccc23)cc(OC)c1OC [BNC105, 2-Methyl-7-hydroxy-3-(3,4,5-trimethoxybenzoyl)-6-methoxybenzofuran]
tumor necrosis (TUNEL staining) (RENCA orthotopic tumour): Very little tumor necrosis
tumor mass that becomes necrotic (tumor mass): > 95%
vascular shutdown (RENCA renal tumours): induced vascular shutdown
CXCL12 and MMP-9 levels (RENCA renal tumours; induced hypoxia): increase in CXCL12 and MMP-9
GLUT1, HIF-1a, PERK, eIF2a and VEGF levels (RENCA renal tumours; on vascular shutdown): increase GLUT1, HIF-1a, PERK, eIF2a and VEGF
tumour growth inhibition [1]: 21%
potency against quiescent versus activated endothelial cells (selectivity) [2]: show selectivity towards tumor endothelial cells (activated) over normal endothelial cells (quiescent)

COc1cc(C(=O)c2c(C)oc3c(OP(=O)([O-])[O-])c(OC)ccc23)cc(OC)c1OC.[Na+].[Na+] [BNC105P, Disodium 6-methoxy-2-methyl-3-(3,4,5-trimethoxybenzoyl)benzofuran-7-yl phosphate]
tumour hypoxia by disruption of tumour vasculature (Calu-6 lung carcinoma): increase tumour hypoxia
tumour hypoxia by disruption of tumour vasculature (Colo205 colon carcinoma): increase tumour hypoxia
unfolded protein response markers PERK and phosphorylation of eIF2α [3]: upregulation of unfolded protein response markers
tumour hypoxia by disruption of tumour vasculature [4]: increase tumour hypoxia
tumour hypoxia by disruption of tumour vasculature ([5]; MDA-MB-231 breast carcinoma): increase tumour hypoxia
apoptotic cells ([5]; MDA-MB-231 tumours): increase in apoptotic cells
blood vessel integrity ([5]; MDA-MB-231 tumours): damage of blood vessel integrity
release of angiogenic growth factor VEGF ([5]; MDA-MB-231 tumours): release of the angiogenic growth factor VEGF
tumour endothelial cells ([5]; MDA-MB-231 tumours): destruction of tumour endothelial cells
